Data reported in ChEMBL document CHEMBL1201862, “PubChem BioAssay data set” (2004).
Active and inactive are the calls of the source.

How the values were obtained:
[1] = molecular target: T1, Long-chain-fatty-acid--AMP ligase FadD28 (Mycobacterium tuberculosis, UniProt P9WQ59); assay: Fluorescence polarization aasay to screen for inhibitors that compete for the binding of FadD28 to a bisubstrate Measured in Biochemical System Using Plate Reader - 2147-01_Inhibitor_Dose_CherryPick_Activity.; type: functional, Mycobacterium tuberculosis H37Rv
T1 sequence (P9WQ59 whole entry): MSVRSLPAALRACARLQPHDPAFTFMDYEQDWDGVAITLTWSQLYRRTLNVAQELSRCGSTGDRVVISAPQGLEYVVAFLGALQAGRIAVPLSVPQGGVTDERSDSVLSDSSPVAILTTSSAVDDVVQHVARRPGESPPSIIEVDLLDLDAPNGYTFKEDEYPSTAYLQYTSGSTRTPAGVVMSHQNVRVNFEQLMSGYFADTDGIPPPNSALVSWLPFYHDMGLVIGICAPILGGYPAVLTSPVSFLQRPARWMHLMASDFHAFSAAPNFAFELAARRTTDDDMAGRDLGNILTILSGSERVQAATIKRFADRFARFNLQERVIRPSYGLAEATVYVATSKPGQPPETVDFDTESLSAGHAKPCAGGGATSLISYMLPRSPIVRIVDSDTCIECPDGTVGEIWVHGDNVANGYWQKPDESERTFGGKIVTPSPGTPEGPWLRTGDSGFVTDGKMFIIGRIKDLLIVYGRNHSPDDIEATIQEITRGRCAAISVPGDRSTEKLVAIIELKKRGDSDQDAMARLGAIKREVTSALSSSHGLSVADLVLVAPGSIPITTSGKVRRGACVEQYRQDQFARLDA

[2] = molecular target: Voltage-dependent T-type calcium channel subunit alpha-1H (Homo sapiens, UniProt O95180); type: functional;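 note: channel activity triggered by adding a high calcium stimulation buffer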
H4 = assay: Luminescence Cell-Based Dose Response HTS to Identify Activators of 5'UTR Stem-Loop Driven Prion Protein mRNA Translation in H4 Neuroglioblastoma Cells. [Related pubchem assays: 1829 (Project Summary), 1814 (Primary HTS)]; type: functional; details: Homo sapiens
Beta-galactosidase = Beta-galactosidase (Escherichia coli, UniProt Q8VNN2); assay: Dose response counterscreen for EBI2 assay utilizing the enzyme, b-galactosidase.; type: functional
[3] = Luminescence Cell-Based Dose Response HTS to Identify Activators of Luciferase Translation or Activity in H4 […] Cells. [Related pubchem assays: 1829 (Project Summary), 1814 (Primary HTS)]; type: functional
[4] = Luminescence Cell-Based Dose Confirmation HTS to Identify Activators of 5'UTR Stem-Loop Driven Alpha-Synuclein mRNA Translation in H4 Neuroglioblastoma Cells. [Related pubchem assays: 1829 (Project Summary), 1814 (Primary HTS)]; type: functional
[5] = molecular target: T2, RNA-binding protein pos-1 (Caenorhabditis elegans, UniProt G5EF15); assay: disruptors of C. elegans POS-1 RNA interaction – biochemical, fluorescence polarization, dose response (AID 1964);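 note: purified POS-1 fused to maltose binding protein made in E. coli; potency of compounds blocking POS-1 binding to fluorescent RNA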
T2 sequence (G5EF15 whole entry): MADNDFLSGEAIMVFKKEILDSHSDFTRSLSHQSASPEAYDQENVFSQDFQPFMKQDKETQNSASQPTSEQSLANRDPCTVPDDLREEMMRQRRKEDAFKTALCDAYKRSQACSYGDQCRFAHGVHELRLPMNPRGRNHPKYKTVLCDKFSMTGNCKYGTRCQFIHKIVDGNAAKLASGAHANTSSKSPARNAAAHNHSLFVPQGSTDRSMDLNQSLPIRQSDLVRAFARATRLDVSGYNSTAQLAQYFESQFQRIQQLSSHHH

[6] = molecular target: T3, Zinc finger protein mex-5 (Caenorhabditis elegans, UniProt Q9XUB2); assay: potency of MEX-5 RNA-binding blockers – biochemical, C. elegans, fluorescence polarization, dose response (AID 1960)
T3 sequence (Q9XUB2 whole entry): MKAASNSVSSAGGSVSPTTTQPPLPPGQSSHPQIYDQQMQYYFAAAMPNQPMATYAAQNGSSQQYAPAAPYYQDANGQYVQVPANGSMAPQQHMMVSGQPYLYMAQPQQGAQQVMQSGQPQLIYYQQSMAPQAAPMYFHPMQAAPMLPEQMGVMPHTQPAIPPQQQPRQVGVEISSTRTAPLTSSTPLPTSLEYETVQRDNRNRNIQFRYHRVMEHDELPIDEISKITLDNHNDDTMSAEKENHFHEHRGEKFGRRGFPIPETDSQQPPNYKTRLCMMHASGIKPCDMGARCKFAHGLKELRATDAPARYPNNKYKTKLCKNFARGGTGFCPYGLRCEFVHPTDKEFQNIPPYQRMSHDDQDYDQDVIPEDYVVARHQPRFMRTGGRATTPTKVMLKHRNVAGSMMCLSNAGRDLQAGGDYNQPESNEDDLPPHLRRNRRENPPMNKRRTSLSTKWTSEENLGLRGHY

[7] = alpha-synuclein stem-loop luciferase translation blockers – H4 neuroglioma cells, luminescence, confirmation (AID 1988); type: functional, cell-based
[8] = luciferase reporter signal suppression in cells – H4 neuroglioma cells, luminescence, dose response (AID 1990); type: functional, cell-based
[9] = Luminescence Cell-Based Dose Response HTS to Identify Inhibitors of 5'UTR Stem-Loop Driven Prion Protein mRNA Translation in H4 Neuroglioblastoma Cells. [Related pubchem assays: 1827 (Project Summary), 1813 (Primary HTS)]; type: functional
cells [10] = type: functional, cell-based
cells [11] = type: functional, cell-based; remark: listed apart in the source
[12] = molecular target: Eukaryotic translation initiation factor 4E (Mus musculus, UniProt P63073); assay: blockers of eIF4G binding by eIF4E – biochemical, TR-FRET, dose response (AID 855); type: functional;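 note: potency for disrupting eIF4E binding to eIF4GI seen as loss of FRET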
Fatty acid synthase [13] = molecular target: T4, Fatty acid synthase (Homo sapiens, UniProt P49327); assay: inhibition of human FAS-TE enzyme activity – biochemical, endpoint fluorescence intensity, uHTS hits, dose response (AID 624327); type: functional;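 note: fluorescence from hydrolysis of an O-methyl fluorescein acyl ester substrate by the enzyme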
Fatty acid synthase [14] = molecular target: T4, Fatty acid synthase; assay: inhibition of human FAS-TE enzyme activity – biochemical, kinetic fluorescence intensity, dose response (AID 624326); type: functional;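 note: rate of fluorescence rise from hydrolysis of a fluorogenic O-methyl fluorescein ester substrate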
[15] = molecular target: DNA dC->dU-editing enzyme APOBEC-3G (Homo sapiens, UniProt Q9HC16); assay: Dose Response confirmation of small molecule APOBEC3G DNA Deaminase Inhibitors via a fluorescence-based single-stranded DNA deaminase assay. [Related pubchem assays (depositor defined):AID493012, AID493028]; type: functional
[16] = blockers of HIV-1 envelope-mediated cell-cell fusion – cherry-pick, dose response (AID 652057); type: functional, cell-based
[17] = HIV-1 AD8 envelope cell-cell fusion blockers – cherry-pick, dose response (AID 652062); type: functional, cell-based;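 note: luciferase signal from cell-cell fusion driven by HIV-1 clade B AD8 Env; potency is for inhibitors of fusion seen as a drop in luminescence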
[18] = blockers of HIV-1 ZM109 envelope-driven cell-cell fusion – HeLa effector, CEM target cells, luciferase, cherry-pick, dose response (AID 652058); type: functional, cell-based;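 note: luciferase signal from HIV-1 Env mediated cell-cell fusion of effector and target cells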
[19] = viability loss in HeLa cells – cytotoxicity control for MgcRacGAP inhibitor project, dose response (AID 624300); type: functional
[20] = molecular target: T5, Rac GTPase-activating protein 1 (Homo sapiens, UniProt Q9H0H5); assay: blockers of MgcRacGAP-driven Rac1 GTP hydrolysis – biochemical, ADP Hunter fluorescence, primary and confirmatory, confirmation (AID 624330); type: functional
T5 sequence (Q9H0H5 whole entry): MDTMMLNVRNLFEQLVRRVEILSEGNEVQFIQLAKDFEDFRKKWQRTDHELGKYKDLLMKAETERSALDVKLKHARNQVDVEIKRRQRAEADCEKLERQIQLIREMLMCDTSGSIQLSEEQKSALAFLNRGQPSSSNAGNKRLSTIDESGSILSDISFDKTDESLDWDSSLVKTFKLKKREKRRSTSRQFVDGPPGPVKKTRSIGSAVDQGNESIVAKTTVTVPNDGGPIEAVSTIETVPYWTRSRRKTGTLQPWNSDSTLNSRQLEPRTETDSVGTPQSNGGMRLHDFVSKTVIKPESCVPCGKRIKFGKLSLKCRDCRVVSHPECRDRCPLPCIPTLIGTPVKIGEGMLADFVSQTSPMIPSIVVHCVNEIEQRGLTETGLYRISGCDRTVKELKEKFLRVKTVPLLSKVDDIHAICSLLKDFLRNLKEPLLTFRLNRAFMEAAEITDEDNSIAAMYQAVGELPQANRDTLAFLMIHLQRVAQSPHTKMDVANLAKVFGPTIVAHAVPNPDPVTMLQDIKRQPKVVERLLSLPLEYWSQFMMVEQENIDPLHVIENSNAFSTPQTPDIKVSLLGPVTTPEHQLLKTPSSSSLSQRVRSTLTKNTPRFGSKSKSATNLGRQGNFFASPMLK

Galanin receptor type 3 = molecular target: T6, Galanin receptor type 3 (Homo sapiens, UniProt O60755); assay: Fluorescence-based cell-based primary high throughput dose response assay to identify antagonists of the Galanin Receptor 3 (GalR3).; type: functional
T6 sequence (O60755 whole entry): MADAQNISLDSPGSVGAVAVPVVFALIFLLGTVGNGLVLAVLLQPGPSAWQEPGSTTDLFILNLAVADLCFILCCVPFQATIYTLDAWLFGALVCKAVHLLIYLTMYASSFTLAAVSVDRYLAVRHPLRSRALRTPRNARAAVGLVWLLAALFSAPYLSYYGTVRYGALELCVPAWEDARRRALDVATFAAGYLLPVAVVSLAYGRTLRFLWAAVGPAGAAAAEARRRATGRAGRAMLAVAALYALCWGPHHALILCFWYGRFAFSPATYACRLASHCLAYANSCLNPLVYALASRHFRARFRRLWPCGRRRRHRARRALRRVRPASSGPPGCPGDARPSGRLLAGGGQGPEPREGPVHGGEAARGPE

cells [21] = type: functional, cell-based; details: HEK-CNG
Cytochrome P450 2D6 = Cytochrome P450 2D6 (Homo sapiens, UniProt P10635);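 note: CYP2D6 member of a cytochrome P450 panel assay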
Chain of Cytochrome P450 2D6 (P10635 whole entry): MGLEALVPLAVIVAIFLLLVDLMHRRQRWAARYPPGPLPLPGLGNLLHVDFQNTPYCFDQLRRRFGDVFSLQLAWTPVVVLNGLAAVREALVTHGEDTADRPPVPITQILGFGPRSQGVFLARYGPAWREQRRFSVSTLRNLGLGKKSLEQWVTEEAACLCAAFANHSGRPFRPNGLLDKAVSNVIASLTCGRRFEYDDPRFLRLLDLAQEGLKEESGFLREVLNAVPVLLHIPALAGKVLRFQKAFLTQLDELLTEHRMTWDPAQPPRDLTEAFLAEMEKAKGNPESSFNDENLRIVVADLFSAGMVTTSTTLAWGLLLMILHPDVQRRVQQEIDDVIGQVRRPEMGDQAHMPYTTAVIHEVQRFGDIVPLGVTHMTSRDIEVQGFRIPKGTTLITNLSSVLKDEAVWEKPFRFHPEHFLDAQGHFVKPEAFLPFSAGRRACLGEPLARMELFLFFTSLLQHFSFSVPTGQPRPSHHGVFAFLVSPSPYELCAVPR

Chain of Voltage-dependent T-type calcium channel subunit alpha-1H (O95180 whole entry): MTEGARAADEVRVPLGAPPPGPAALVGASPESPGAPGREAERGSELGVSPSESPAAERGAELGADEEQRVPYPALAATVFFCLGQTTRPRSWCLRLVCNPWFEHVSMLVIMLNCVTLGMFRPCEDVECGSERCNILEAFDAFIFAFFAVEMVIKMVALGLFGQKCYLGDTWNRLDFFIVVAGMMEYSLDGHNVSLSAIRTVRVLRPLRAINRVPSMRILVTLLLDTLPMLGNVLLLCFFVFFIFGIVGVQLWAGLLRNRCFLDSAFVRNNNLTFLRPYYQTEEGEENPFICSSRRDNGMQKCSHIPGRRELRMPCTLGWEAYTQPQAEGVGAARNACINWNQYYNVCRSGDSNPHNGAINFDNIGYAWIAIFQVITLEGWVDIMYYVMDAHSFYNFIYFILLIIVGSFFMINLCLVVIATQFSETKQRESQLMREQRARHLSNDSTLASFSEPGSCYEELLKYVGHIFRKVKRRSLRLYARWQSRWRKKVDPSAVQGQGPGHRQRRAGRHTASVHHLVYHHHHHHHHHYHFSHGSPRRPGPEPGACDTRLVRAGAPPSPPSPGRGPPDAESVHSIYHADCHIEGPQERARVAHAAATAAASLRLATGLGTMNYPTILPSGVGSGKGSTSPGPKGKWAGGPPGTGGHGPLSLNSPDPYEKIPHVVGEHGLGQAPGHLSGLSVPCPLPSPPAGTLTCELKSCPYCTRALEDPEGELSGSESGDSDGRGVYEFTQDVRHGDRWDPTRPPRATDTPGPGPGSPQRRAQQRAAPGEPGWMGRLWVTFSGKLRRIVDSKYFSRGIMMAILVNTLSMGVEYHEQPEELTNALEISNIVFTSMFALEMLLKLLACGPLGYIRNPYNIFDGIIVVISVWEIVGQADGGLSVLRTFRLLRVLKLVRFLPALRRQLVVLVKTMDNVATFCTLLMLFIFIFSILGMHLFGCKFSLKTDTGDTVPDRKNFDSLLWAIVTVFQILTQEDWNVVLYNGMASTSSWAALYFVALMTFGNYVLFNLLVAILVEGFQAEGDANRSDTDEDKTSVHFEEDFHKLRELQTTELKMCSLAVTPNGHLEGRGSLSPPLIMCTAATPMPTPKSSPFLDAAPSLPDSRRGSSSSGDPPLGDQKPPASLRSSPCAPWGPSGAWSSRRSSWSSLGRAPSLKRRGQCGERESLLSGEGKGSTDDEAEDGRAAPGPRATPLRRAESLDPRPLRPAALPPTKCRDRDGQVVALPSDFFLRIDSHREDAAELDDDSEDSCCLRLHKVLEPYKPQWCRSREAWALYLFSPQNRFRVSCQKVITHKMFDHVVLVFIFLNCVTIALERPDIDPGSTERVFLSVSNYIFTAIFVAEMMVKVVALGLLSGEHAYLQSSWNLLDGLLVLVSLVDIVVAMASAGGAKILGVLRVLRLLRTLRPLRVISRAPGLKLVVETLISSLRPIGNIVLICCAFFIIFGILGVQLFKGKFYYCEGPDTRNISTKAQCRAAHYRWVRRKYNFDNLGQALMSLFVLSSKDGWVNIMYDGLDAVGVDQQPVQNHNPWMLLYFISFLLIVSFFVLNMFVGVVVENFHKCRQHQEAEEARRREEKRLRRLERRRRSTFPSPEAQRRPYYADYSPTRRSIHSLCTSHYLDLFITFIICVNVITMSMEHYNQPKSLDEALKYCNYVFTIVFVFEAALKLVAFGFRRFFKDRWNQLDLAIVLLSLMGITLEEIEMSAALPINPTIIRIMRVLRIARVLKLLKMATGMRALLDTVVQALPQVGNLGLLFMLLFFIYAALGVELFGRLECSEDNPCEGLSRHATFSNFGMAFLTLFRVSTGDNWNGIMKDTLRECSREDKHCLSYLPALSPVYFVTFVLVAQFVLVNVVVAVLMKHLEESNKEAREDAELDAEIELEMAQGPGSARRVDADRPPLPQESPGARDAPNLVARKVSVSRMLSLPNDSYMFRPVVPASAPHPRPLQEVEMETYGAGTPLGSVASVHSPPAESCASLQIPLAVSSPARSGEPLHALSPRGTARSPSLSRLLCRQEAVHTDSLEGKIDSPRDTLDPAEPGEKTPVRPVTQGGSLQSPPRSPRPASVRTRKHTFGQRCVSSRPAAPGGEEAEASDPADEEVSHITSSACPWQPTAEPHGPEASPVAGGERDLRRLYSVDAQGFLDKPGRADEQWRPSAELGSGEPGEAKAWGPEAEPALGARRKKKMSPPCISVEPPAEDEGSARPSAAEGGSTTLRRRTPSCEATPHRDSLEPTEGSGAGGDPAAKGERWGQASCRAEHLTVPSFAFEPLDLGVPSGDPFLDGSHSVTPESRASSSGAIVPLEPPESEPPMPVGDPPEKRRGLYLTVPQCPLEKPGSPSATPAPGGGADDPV
Chain of Beta-galactosidase (Q8VNN2 whole entry): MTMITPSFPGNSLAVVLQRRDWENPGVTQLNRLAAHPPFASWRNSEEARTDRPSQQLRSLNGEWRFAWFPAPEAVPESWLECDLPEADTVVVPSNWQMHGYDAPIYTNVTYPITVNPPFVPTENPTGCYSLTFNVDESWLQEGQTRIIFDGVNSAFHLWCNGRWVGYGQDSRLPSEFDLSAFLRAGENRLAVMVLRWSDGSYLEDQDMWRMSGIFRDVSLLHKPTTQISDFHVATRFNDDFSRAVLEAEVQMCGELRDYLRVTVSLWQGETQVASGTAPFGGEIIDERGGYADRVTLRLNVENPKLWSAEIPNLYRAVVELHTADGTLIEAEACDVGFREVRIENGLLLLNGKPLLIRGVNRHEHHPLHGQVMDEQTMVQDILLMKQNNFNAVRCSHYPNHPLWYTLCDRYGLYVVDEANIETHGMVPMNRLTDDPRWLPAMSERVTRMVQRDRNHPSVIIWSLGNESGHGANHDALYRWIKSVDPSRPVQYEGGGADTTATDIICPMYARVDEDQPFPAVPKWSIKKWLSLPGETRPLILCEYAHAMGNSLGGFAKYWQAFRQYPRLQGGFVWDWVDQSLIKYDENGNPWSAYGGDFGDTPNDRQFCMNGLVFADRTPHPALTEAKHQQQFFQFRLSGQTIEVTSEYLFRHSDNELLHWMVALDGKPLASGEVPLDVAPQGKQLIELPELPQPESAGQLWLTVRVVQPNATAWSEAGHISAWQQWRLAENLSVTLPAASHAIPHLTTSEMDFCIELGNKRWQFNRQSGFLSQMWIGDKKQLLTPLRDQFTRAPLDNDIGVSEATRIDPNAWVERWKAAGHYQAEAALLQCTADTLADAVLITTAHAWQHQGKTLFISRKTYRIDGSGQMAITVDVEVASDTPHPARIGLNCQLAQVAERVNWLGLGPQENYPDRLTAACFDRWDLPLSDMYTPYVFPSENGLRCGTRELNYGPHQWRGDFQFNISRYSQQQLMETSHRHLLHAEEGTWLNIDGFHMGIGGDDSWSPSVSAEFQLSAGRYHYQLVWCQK
Chain of DNA dC->dU-editing enzyme APOBEC-3G (Q9HC16 whole entry, the tested form may be a part): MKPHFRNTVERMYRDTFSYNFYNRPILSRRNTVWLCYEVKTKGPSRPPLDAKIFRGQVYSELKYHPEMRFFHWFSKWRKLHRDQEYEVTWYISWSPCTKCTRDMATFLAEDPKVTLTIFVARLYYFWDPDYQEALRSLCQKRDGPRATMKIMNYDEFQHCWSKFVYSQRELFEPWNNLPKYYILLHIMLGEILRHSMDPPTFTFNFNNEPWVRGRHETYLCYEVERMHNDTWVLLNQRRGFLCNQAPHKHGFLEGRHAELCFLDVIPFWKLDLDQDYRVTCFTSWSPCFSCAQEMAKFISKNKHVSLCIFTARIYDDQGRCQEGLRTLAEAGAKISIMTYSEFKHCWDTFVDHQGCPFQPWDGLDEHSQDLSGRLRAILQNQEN
Chain of Eukaryotic translation initiation factor 4E (P63073 whole entry): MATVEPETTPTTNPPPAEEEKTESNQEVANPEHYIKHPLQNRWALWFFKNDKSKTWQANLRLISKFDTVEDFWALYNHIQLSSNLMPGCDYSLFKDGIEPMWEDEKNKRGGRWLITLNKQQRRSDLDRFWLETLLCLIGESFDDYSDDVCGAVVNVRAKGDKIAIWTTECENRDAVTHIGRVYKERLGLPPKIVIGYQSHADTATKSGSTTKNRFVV

COc1ccc(/C=C/C(=O)N(C)Cc2cccs2)cc1S(=O)(=O)N1CCOCC1
AC50 [1]: 42.6 µM (active)

O=C(CCSc1nc(-c2ccco2)cc(C(F)(F)F)n1)N1CCN(c2ccccn2)CC1
EC50 [2]: 6.47 µM (active)

CCN1CCN(C(=O)c2cc3c(s2)-c2c(C)cccc2OC3)CC1
EC50 (H4): 9.85 µM (active)
IC50 (Beta-galactosidase): > 80 µM (inactive)
EC50 [3]: 5.32 µM (active)

O=C(NC(=S)NC1CCCCCC1)c1cncc(Br)c1
EC50 (H4): 7.48 µM (active)
EC50 [3]: 76.3 µM (active)
EC50 [4]: 39.6 µM (active)

CCc1c(C(=O)NNC(=S)Nc2ccc(S(=O)(=O)Nc3ncccn3)cc2)csc1C
EC50 [5]: > 300 µM (not active)
AC50 [1]: 89.7 µM (active)
EC50 [6]: 12.5 µM (active)

O=C(c1cc2cc(Cl)ccc2[nH]1)N1CCC2(CC1)OCCO2
IC50 (Beta-galactosidase): > 80 µM (inactive)

CC1CCC2(CC1)NC(=O)N(NC(=O)CCl)C2=O (stereo not drawn)
EC50 (H4): > 120 µM (not active)
EC50 [3]: > 120 µM (not active)
EC50 [4]: 34.7 µM (active)

CCOC(=O)c1c(C)[nH]c(C)c1C(=O)Cn1nnc(-c2ccccc2C)n1
EC50 [7]: > 120 µM (not active)
EC50 [2]: 5.31 µM (active)
EC50 [8]: > 60 µM (not active)
EC50 [9]: 18.3 µM (active)

O=C(/C=C/c1ccc(Cl)cc1)N1CCN(c2ccccn2)CC1
IC50 (Beta-galactosidase): > 80 µM (inactive)

CCc1nnc(NC(=O)CC(CN(C)S(=O)(=O)c2ccccc2)c2ccccc2)s1 (stereo not drawn)
EC50 [2]: 2.4 µM (active)

O=[N+]([O-])c1[nH]cnc1/C=C/c1ccccc1
EC50 (cells [10]): > 29.9 µM (inactive)
IC50 (cells [11]): > 29.9 µM (inactive)

CCS(=O)(=O)c1ccc2oc(Nc3ccc(C(C)C)cc3)nc2c1
IC50 [12]: > 64 µM (inactive)
IC50 (Fatty acid synthase [13]): 22.3 µM (inactive)
IC50 (Fatty acid synthase [14]): 12.6 µM (active)
IC50 [15]: 20.7 µM (active)

CC1CC(C)CN(C(=O)CSc2nnc(-c3ccc(Cl)s3)o2)C1 (stereo not drawn)
EC50 [2]: 10.8 µM (active)

Cc1c(C(=O)N2CCc3ccccc3C2)oc2ccc(S(=O)(=O)N3CC(C)CC(C)C3)cc12 (stereo not drawn)
EC50 (cells [10]): > 29.9 µM (inactive)
IC50 (cells [11]): > 29.9 µM (inactive)

COc1ccc(NC(=O)Nc2ccc3c(c2)C(=O)N([C@@H](C)CO)C[C@H](C)[C@H](CN(C)Cc2ccncc2)OCCCC[C@H](C)O3)cc1
AC50 [16]: 0.541 µM (active)
AC50 [17]: 12.7 µM (active)
AC50 [18]: 0.412 µM (active)

Cc1noc(C)c1S(=O)(=O)N(C)C[C@@H]1Oc2ccc(NC(=O)Nc3cccc4ccccc34)cc2CC(=O)N([C@@H](C)CO)C[C@@H]1C
AC50 [16]: 4.83 µM (active)
AC50 [17]: 9.04 µM (active)
AC50 [18]: 2.44 µM (active)

COc1cccc(/C=C/C(=O)N2CCN(S(=O)(=O)c3ccccc3)CC2)c1
IC50 (Beta-galactosidase): > 80 µM (inactive)

COc1cc2c(cc1OC)C(/C=C/c1ccco1)=NCC2
CC50 [19]: 100 µM (active)
IC50 [20]: 42.3 µM (active)

CO/C(O)=C1\C(C)=NC2=C(C(=O)CCC2)C1c1cn(Cc2ccc(Cl)cc2Cl)nc1-c1ccccc1 (stereo not drawn)
IC50 (Galanin receptor type 3): 3.85 µM (active)
EC50 (cells [21]): > 29.9 µM (inactive)
AC50 (Cytochrome P450 2D6): 3.55 µM (inconclusive)

CN1CCN(c2ccc(Cl)cc2NC(=O)C2COc3ccccc3O2)CC1 (stereo not drawn)
EC50 [2]: 8.08 µM (active)
